In patent publication US20130289070A1, “Use of Levocabastine for Modulating Generation of Pro-Inflammatory Cytokines” (Bausch & Lomb Incorporated, priority 2007, published 2013):

Assays:
[1] = test system: EoL-1 (human eosinophilic leukaemia cell line) cells; assay: TNF-α-induced cytokine release, EoL-1 cells differentiated with PMA (Luminex); assay type: cell-based; details: 24 h, Bio1211 vs TNF-α
Experimental: (§1) EoL-1 (human eosinophilic leukaemia cell line) cells (Saito et al., 1985; Mayumi, 1992) were maintained in RPMI-1640 medium with L-glutamine supplemented with 10% (v/v) FBS at 37° C. in a humidified atmosphere with 5% CO2. Where indicated, 24 h before the experiment 25 ng/mL PMA ((phorbol 12-myristate 13-acetate, purchased from Sigma Aldrich) was added to the medium to induce eosinophil granulation and differentiation (Ohtsu et al., 1993; Zimmermann et al., 2000).
(§2) Half-million cells were aliquoted per point in a 24 well plate; each experiment was performed in triplicate and carried out in parallel with eosinophils differentiated and non differentiated with PMA (25 ng/mL, 24 h). Cells were suspended in low serum medium (RPMI-1640, 0.1% (v/v) FBS). TNF-α was used to induce cytokine secretion as previously described by Steube et al. (2000), and the net release was obtained by comparison to the basal (non-TNF-α treated). In the first experiment we evaluated the concentration and time relation between TNF-α stimulation and cytokine release. Therefore, 5, 10, and 25 ng/mL of TNF-α was administered to the cells at 0, ½, 1, 2, 3, 6, 12 and 24 h (data not shown). An aliquot of 150 μL of supernate was collected for cytokines' analysis. […] Differentiated and non-differentiated EoL-1 cells were exposed from 0.1 to 2.3 mM levocabastine ([…]Levocabastine 0.05% solution eye drops containing cyclodextrins, without benzalkonium chloride), and aliquots of the supernates were collected after 12 and 24 h. The content of cytokines at time zero was estimated by treating the cells with 400 nM calcimycin (A-23187), which is a cytolytic agent that frees all the mediators from the cytoplasmic compartment. In addition, for each experiment we tested the effect of the vehicle, which was added to the wells in a concentration equal to the maximum amount used for drug dilution.
(§3) Samples (supernates 12 and 24 h) in triplicate were analyzed using Luminex 200™ (Luminex, Austin, Tex.) and Beadview software v1.0 (Upstate Cell Signaling Solutions, Temecula, Calif.).
(§4) All data are presented as mean±SEM for the indicated number of experiments. Statistical significance was determined by Newman-Keuls test after ANOVA using GraphPad Prism (version 3.0; GraphPad Software Inc., San Diego, Calif., USA). P-values<0.05 were considered to be significant.

[2] = test system: EoL-1 (human eosinophilic leukaemia cell line) cells; assay: TNF-α-induced cytokine release, non-differentiated EoL-1 cells (NO PMA) (Luminex); assay type: cell-based; details: 24 h, Bio1211 vs TNF-α
Experimental: as §1, §2, §3, §4

4-((2-methylphenyl)aminocarbonyl)-aminophenyl)acetyl-Leu-Asp-Val-Pro-OH [Bio1211]
Fractalkine (PMA), p of decrement [1]: ns
G-CSF (PMA), p of decrement [1]: ns
GM-CSF (PMA), p of decrement [1]: ns
IL-1ra (PMA), p of decrement [1]: ns
IL-1α (PMA), p of decrement [1]: P < 0.05
IL-1β (PMA), p of decrement [1]: ns
IL-5 (PMA), p of decrement [1]: ns
IL-6 (PMA), p of decrement [1]: ns
IL-7 (PMA), p of decrement [1]: ns
IL-8 (PMA), p of decrement [1]: ns
IL-10 (PMA), p of decrement [1]: ns
IL-12p40 (PMA), p of decrement [1]: P < 0.05
IP-10 (PMA), p of decrement [1]: P < 0.001
MCP-1 (PMA), p of decrement [1]: P < 0.001
MIP-1α (PMA), p of decrement [1]: ns
MIP-1β (PMA), p of decrement [1]: ns
RANTES (PMA), p of decrement [1]: ns
TGF-α (PMA), p of decrement [1]: ns
VEGF (PMA), p of decrement [1]: P < 0.05
Fractalkine (NO PMA), p of decrement [2]: P < 0.05
G-CSF (NO PMA), p of decrement [2]: ns
GM-CSF (NO PMA), p of decrement [2]: P < 0.05
IL-1ra (NO PMA), p of decrement [2]: P < 0.001
IL-1α (NO PMA), p of decrement [2]: ns
IL-1β (NO PMA), p of decrement [2]: ns
IL-5 (NO PMA), p of decrement [2]: ns
IL-6 (NO PMA), p of decrement [2]: P < 0.05
IL-7 (NO PMA), p of decrement [2]: ns
IL-8 (NO PMA), p of decrement [2]: P < 0.001
IL-10 (NO PMA), p of decrement [2]: ns
IL-12p40 (NO PMA), p of decrement [2]: P < 0.05
IP-10 (NO PMA), p of decrement [2]: P < 0.001
MCP-1 (NO PMA), p of decrement [2]: ns
MIP-1α (NO PMA), p of decrement [2]: ns
MIP-1β (NO PMA), p of decrement [2]: ns
RANTES (NO PMA), p of decrement [2]: ns
TGF-α (NO PMA), p of decrement [2]: ns
VEGF (NO PMA), p of decrement [2]: ns
